The values that follow come from ChEMBL document CHEMBL3045012, “Quinoline-based azetidinone and thiazolidinone analogues as antimicrobial and antituberculosis agents” (2013).

Values after ≈ are worked out from the molar mass of the structure shown.

Common to all, as to type: functional
In assay [1] the test system is Mycobacterium tuberculosis. The assay can be described thus: Antituberculosis activity against Mycobacterium tuberculosis H37Rv assessed as growth inhibition after 12 to 28 days by L-J MIC method. As to conditions: for MIC: Mycobacterium tuberculosis, H37Rv.
Assay [2] has as its system Candida albicans. Kind of assay: Antimicrobial activity against Candida albicans MTCC 183 assessed as growth inhibition after 48 hr by agar streak dilution technique. As to conditions: MTCC 183, 48 h.
In assay [3] the test system is Aspergillus niger. The assay can be described thus: Antimicrobial activity against Aspergillus niger MTCC 282 assessed as growth inhibition after 48 hr by agar streak dilution technique. As to conditions: MTCC 282, 48 h.
Assay [4] has as its system Pseudomonas aeruginosa. Kind of assay: Antimicrobial activity against Pseudomonas aeruginosa MTCC 741 assessed as growth inhibition after 24 hr by agar streak dilution technique. As to conditions: MTCC 741, 24 h.
The subject of assay [5] is Escherichia coli. Kind of assay: Antimicrobial activity against Escherichia coli MTCC 739 assessed as growth inhibition after 24 hr by agar streak dilution technique. As to conditions: MTCC 739, 24 h.
Assay [6] relates to Bacillus subtilis. The assay can be described thus: Antimicrobial activity against Bacillus subtilis MTCC 430 assessed as growth inhibition after 24 hr by agar streak dilution technique. As to conditions: MTCC 430, 24 h.
Assay [7] relates to Staphylococcus aureus. The assay can be described thus: Antimicrobial activity against Staphylococcus aureus MTCC 96 assessed as growth inhibition after 24 hr by agar streak dilution technique. As to conditions: MTCC 96, 24 h.
For assay [8], the system named is Candida albicans. The assay can be described thus: Antimicrobial activity against Candida albicans MTCC 183 assessed as diameter of growth inhibition zone after 24 hr by paper disk diffusion technique. (In general: Agar diffusion results depend on both activity and mobility in agar.)
Assay [9] concerns Aspergillus niger. The assay can be described thus: Antimicrobial activity against Aspergillus niger MTCC 282 assessed as diameter of growth inhibition zone after 24 hr by paper disk diffusion technique.
For assay [10], the system named is Pseudomonas aeruginosa. Kind of assay: Antimicrobial activity against Pseudomonas aeruginosa MTCC 741 assessed as diameter of growth inhibition zone after 24 hr by paper disk diffusion technique.
In assay [11] the test system is Escherichia coli. Kind of assay: Antimicrobial activity against Escherichia coli MTCC 739 assessed as diameter of growth inhibition zone after 24 hr by paper disk diffusion technique.
The test system of assay [12] is Bacillus subtilis. The assay can be described thus: Antimicrobial activity against Bacillus subtilis MTCC 430 assessed as diameter of growth inhibition zone after 24 hr by paper disk diffusion technique.
The subject of assay [13] is Staphylococcus aureus. Kind of assay: Antimicrobial activity against Staphylococcus aureus MTCC 96 assessed as diameter of growth inhibition zone after 24 hr by paper disk diffusion technique.

Take `Cc1ccc(N2C(=O)CSC2c2cc3ccccc3nc2Cl)cc1` (configuration not stated): in assay [1], the “growth inhibition (GI)” value came out at 94%. Further, the MIC stood at 250 µg/mL (≈ 704 µM) in assay [1]; 100 µg/mL (≈ 282 µM) with Candida albicans [2]; 100 µg/mL (≈ 282 µM) with Aspergillus niger [3]; 62.5 µg/mL (≈ 176 µM) in the assay with Pseudomonas aeruginosa [4]; 100 µg/mL (≈ 282 µM) with Escherichia coli [5]; 100 µg/mL (≈ 282 µM) with Bacillus subtilis [6]. Moreover, in the assay on Staphylococcus aureus [7], the MIC came to 100 µg/mL (≈ 282 µM). The “diameter of the inhibition zone (DIZ)” value in the assay with Candida albicans [8] is recorded as 17 mm; in the assay on Aspergillus niger [9], less than 10 mm; in the assay with Pseudomonas aeruginosa [10], 20 mm; in the assay on Escherichia coli [11], 17 mm; in the assay with Bacillus subtilis [12], 19 mm; in the assay on Staphylococcus aureus [13], 19 mm.

Turning to `O=C1CSC(c2cc3ccccc3nc2Cl)N1c1ccccc1[N+](=O)[O-]` (configuration not stated), the “growth inhibition (GI)” value in assay [1] is recorded as 93%. Besides, the MIC in assay [1] is 200 µg/mL (≈ 518 µM); with Candida albicans [2], 100 µg/mL (≈ 259 µM); in the assay with Aspergillus niger [3], 50 µg/mL (≈ 130 µM); with Pseudomonas aeruginosa [4], 12.5 µg/mL (≈ 32.4 µM); in the assay with Escherichia coli [5], 12.5 µg/mL (≈ 32.4 µM); in the assay on Bacillus subtilis [6] it was 62.5 µg/mL (≈ 162 µM). Besides, the MIC with Staphylococcus aureus [7] is 25 µg/mL (≈ 64.8 µM). Also, the “diameter of the inhibition zone (DIZ)” value in the assay with Candida albicans [8] is 20 mm; in the assay on Aspergillus niger [9], 22 mm; in the assay on Pseudomonas aeruginosa [10] it was 25 mm; with Escherichia coli [11] it was 24 mm; with Bacillus subtilis [12] it was 21 mm; with Staphylococcus aureus [13], 25 mm.

For the compound `O=C1CSC(c2cc3ccccc3nc2Cl)N1c1cccc([N+](=O)[O-])c1` (configuration not stated), the “growth inhibition (GI)” value in [1] is reported as 94%. Further, the MIC worked out at 100 µg/mL (≈ 259 µM) in assay [1]; 25 µg/mL (≈ 64.8 µM) in the assay with Candida albicans [2]; 25 µg/mL (≈ 64.8 µM) with Aspergillus niger [3]; 12.5 µg/mL (≈ 32.4 µM) in the assay with Pseudomonas aeruginosa [4]; 62.5 µg/mL (≈ 162 µM) in the assay with Escherichia coli [5]; 50 µg/mL (≈ 130 µM) with Bacillus subtilis [6]. For the same compound, the MIC in the assay with Staphylococcus aureus [7] came out at 12.5 µg/mL (≈ 32.4 µM). The “diameter of the inhibition zone (DIZ)” value with Candida albicans [8] is listed as 23 mm; with Aspergillus niger [9], 24 mm; in the assay with Pseudomonas aeruginosa [10], 24 mm; in the assay with Escherichia coli [11] it was 22 mm; with Bacillus subtilis [12], 22 mm; in the assay on Staphylococcus aureus [13], 26 mm.

Turning to `O=C1CSC(c2cc3ccccc3nc2Cl)N1c1ccc([N+](=O)[O-])cc1` (configuration not stated), the “growth inhibition (GI)” value in assay [1] was 97%. The MIC in assay [1] was 50 µg/mL (≈ 130 µM); in the assay with Candida albicans [2], 25 µg/mL (≈ 64.8 µM); in the assay with Aspergillus niger [3], 12.5 µg/mL (≈ 32.4 µM); with Pseudomonas aeruginosa [4], 12.5 µg/mL (≈ 32.4 µM); in the assay on Escherichia coli [5] it was 62.5 µg/mL (≈ 162 µM); with Bacillus subtilis [6], 50 µg/mL (≈ 130 µM). In addition, in the assay with Staphylococcus aureus [7], the MIC was found to be 12.5 µg/mL (≈ 32.4 µM). The “diameter of the inhibition zone (DIZ)” value in the assay on Candida albicans [8] was determined as 24 mm; in the assay with Aspergillus niger [9] it was 24 mm; in the assay with Pseudomonas aeruginosa [10], 25 mm; in the assay with Escherichia coli [11] it was 21 mm; in the assay with Bacillus subtilis [12], 23 mm; in the assay on Staphylococcus aureus [13] it was 26 mm.

Consider `O=C1CSC(c2cc3ccccc3nc2Cl)N1c1ccccc1Cl` (configuration not stated), for which the “growth inhibition (GI)” value in [1] amounted to 95%. In addition, the MIC in assay [1] came out at 100 µg/mL (≈ 266 µM); in the assay on Candida albicans [2], 62.5 µg/mL (≈ 167 µM); with Aspergillus niger [3], 62.5 µg/mL (≈ 167 µM); in the assay on Pseudomonas aeruginosa [4] it was 25 µg/mL (≈ 66.6 µM); in the assay with Escherichia coli [5] it was 62.5 µg/mL (≈ 167 µM); in the assay on Bacillus subtilis [6], 12.5 µg/mL (≈ 33.3 µM). For the same compound, the MIC in the assay with Staphylococcus aureus [7] turned out to be 50 µg/mL (≈ 133 µM). Moreover, the “diameter of the inhibition zone (DIZ)” value turned out to be 21 mm with Candida albicans [8]; 20 mm in the assay on Aspergillus niger [9]; 21 mm in the assay on Pseudomonas aeruginosa [10]; 21 mm in the assay on Escherichia coli [11]; 23 mm with Bacillus subtilis [12]; 21 mm in the assay on Staphylococcus aureus [13].

For the compound `O=C1CSC(c2cc3ccccc3nc2Cl)N1c1cccc(Cl)c1` (configuration not stated), the “growth inhibition (GI)” value in assay [1] worked out at 97%. The MIC in assay [1] stood at 50 µg/mL (≈ 133 µM); with Candida albicans [2], 100 µg/mL (≈ 266 µM); in the assay on Aspergillus niger [3], 50 µg/mL (≈ 133 µM); in the assay with Pseudomonas aeruginosa [4], 25 µg/mL (≈ 66.6 µM); with Escherichia coli [5], 62.5 µg/mL (≈ 167 µM); with Bacillus subtilis [6], 12.5 µg/mL (≈ 33.3 µM). Moreover, the MIC in the assay on Staphylococcus aureus [7] is 25 µg/mL (≈ 66.6 µM). The “diameter of the inhibition zone (DIZ)” value in the assay on Candida albicans [8] was 20 mm; with Aspergillus niger [9] it was 24 mm; in the assay with Pseudomonas aeruginosa [10], 23 mm; with Escherichia coli [11] it was 22 mm; in the assay with Bacillus subtilis [12], 24 mm; with Staphylococcus aureus [13] it was 26 mm.

For `O=C1CSC(c2cc3ccccc3nc2Cl)N1c1ccc(Cl)cc1` (configuration not stated), in assay [1], the “growth inhibition (GI)” value is 96%. Besides, the MIC in assay [1] was 62.5 µg/mL (≈ 167 µM); in the assay with Candida albicans [2], 50 µg/mL (≈ 133 µM); in the assay with Aspergillus niger [3] it was 12.5 µg/mL (≈ 33.3 µM); in the assay on Pseudomonas aeruginosa [4] it was 25 µg/mL (≈ 66.6 µM); in the assay on Escherichia coli [5] it was 50 µg/mL (≈ 133 µM); with Bacillus subtilis [6] it was 12.5 µg/mL (≈ 33.3 µM). Further, the minimum inhibitory concentration (MIC) in the assay with Staphylococcus aureus [7] is 50 µg/mL (≈ 133 µM). Also, the “diameter of the inhibition zone (DIZ)” value stood at 22 mm in the assay with Candida albicans [8]; 25 mm with Aspergillus niger [9]; 24 mm in the assay with Pseudomonas aeruginosa [10]; 23 mm in the assay with Escherichia coli [11]; 24 mm in the assay on Bacillus subtilis [12]; 23 mm in the assay on Staphylococcus aureus [13].

Regarding `O=C1CSC(c2cc3ccccc3nc2Cl)N1c1ccc(F)cc1` (configuration not stated), in [1], the “growth inhibition (GI)” value was 99%. Further, the MIC in assay [1] came to 12.5 µg/mL (≈ 34.8 µM); with Candida albicans [2] it was 25 µg/mL (≈ 69.7 µM); with Aspergillus niger [3], 12.5 µg/mL (≈ 34.8 µM); in the assay with Pseudomonas aeruginosa [4], 25 µg/mL (≈ 69.7 µM); in the assay on Escherichia coli [5], 25 µg/mL (≈ 69.7 µM); in the assay on Bacillus subtilis [6], 12.5 µg/mL (≈ 34.8 µM). The MIC in the assay on Staphylococcus aureus [7] is 25 µg/mL (≈ 69.7 µM). The “diameter of the inhibition zone (DIZ)” value was found to be 24 mm with Candida albicans [8]; 25 mm with Aspergillus niger [9]; 24 mm with Pseudomonas aeruginosa [10]; 23 mm in the assay with Escherichia coli [11]; 23 mm with Bacillus subtilis [12]; 24 mm with Staphylococcus aureus [13].

With `Cc1cnc(N2C(=O)CSC2c2cc3ccccc3nc2Cl)s1` (configuration not stated), the “growth inhibition (GI)” value in assay [1] was 98%. The MIC was found to be 25 µg/mL (≈ 69.1 µM) in [1]; 100 µg/mL (≈ 276 µM) with Candida albicans [2]; 62.5 µg/mL (≈ 173 µM) with Aspergillus niger [3]; 50 µg/mL (≈ 138 µM) in the assay with Pseudomonas aeruginosa [4]; 25 µg/mL (≈ 69.1 µM) in the assay on Escherichia coli [5]; 50 µg/mL (≈ 138 µM) in the assay on Bacillus subtilis [6]. Besides, in the assay on Staphylococcus aureus [7], the MIC was determined as 50 µg/mL (≈ 138 µM). Besides, the “diameter of the inhibition zone (DIZ)” value turned out to be 23 mm in the assay on Candida albicans [8]; 24 mm with Aspergillus niger [9]; 22 mm in the assay with Pseudomonas aeruginosa [10]; 24 mm with Escherichia coli [11]; 23 mm with Bacillus subtilis [12]; 24 mm in the assay on Staphylococcus aureus [13].

Take `O=C(O)c1cn(C2CC2)c2cc(N3CCNCC3)c(F)cc2c1=O` [CIPROFLOXACIN]: the MIC with Pseudomonas aeruginosa [4], with Escherichia coli [5], with Bacillus subtilis [6] and in the assay on Staphylococcus aureus [7] was no more than 1 µg/mL in each case. The “diameter of the inhibition zone (DIZ)” value in the assay on Pseudomonas aeruginosa [10] is given as 33 mm; with Escherichia coli [11] it was 32 mm; with Bacillus subtilis [12], 31 mm; with Staphylococcus aureus [13], 30 mm.

Consider `CC[C@@H](CO)NCCN[C@@H](CC)CO` [ETHAMBUTOL], for which, in assay [1], the “growth inhibition (GI)” value is listed as 99% and the MIC turned out to be 3.12 µg/mL (≈ 15.3 µM).

For the compound `CC(=O)N1CCN(c2ccc(OCC3COC(Cn4ccnc4)(c4ccc(Cl)cc4Cl)O3)cc2)CC1` (configuration not stated) [KETOCONAZOLE], the values for the MIC with Candida albicans [2] and in the assay with Aspergillus niger [3] were no more than 1 µg/mL and no more than 3 µg/mL, respectively. Moreover, the “diameter of the inhibition zone (DIZ)” value came out at 33 mm in the assay with Candida albicans [8] and 30 mm with Aspergillus niger [9].

Consider `NC(=O)c1cnccn1` [PYRAZINAMIDE], for which, in assay [1], the “growth inhibition (GI)” value came to 99% and the MIC came out at 6.25 µg/mL (≈ 50.8 µM).

For orientation: MIC means the lowest concentration that inhibits growth of the organism.
